Reference: paper PMC4169440, “Sequence Analysis and Molecular Characterization of Clonorchis sinensis Hexokinase, an Unusual Trimeric 50-kDa Glucose-6-Phosphate-Sensitive Allosteric Enzyme” (PLoS ONE, 2014)

Tests used:
[1] = molecular target: T1, rCsHK (recombinant Clonorchis sinensis hexokinase, CsHK) (Clonorchis sinensis, UniProt G7YJ23); experiment: G6PD-coupled NADPH assay at […] nm; type: biochemical; conditions: 3 mM glucose, with respect to ATP
T1 construct: gene CLF_109217; homotrimer about 164 kDa
T1 sequence (G7YJ23 1-449): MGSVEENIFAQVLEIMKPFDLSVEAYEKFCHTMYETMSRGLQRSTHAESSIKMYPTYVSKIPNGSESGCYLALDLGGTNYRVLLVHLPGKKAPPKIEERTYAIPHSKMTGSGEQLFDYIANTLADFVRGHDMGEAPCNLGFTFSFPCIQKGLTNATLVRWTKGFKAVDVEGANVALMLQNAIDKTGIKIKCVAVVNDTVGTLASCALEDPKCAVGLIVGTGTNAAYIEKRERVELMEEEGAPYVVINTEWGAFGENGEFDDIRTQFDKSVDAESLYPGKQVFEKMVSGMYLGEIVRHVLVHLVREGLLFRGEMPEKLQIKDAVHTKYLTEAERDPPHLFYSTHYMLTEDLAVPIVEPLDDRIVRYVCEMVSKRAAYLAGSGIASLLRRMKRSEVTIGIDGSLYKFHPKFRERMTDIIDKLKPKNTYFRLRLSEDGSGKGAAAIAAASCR

[2] = molecular target: T1, rCsHK (recombinant Clonorchis sinensis hexokinase, CsHK); experiment: coupled pyruvate kinase / lactate dehydrogenase ADP assay at […] nm; type: biochemical; conditions: 0-4 mM G6P; with respect to ATP or glucose; allosteric inhibitor, dose-independent; also product
[3] = molecular target: T1, rCsHK (recombinant Clonorchis sinensis hexokinase, CsHK); experiment: G6PD-coupled NADPH assay at […] nm; type: biochemical; conditions: read-out: relative enzymatic activity at 4 mM
purified protein = substrate: Nc1ncnc2c1ncn2[C@@H]1O[C@H](COP(=O)(O)OP(=O)(O)OP(=O)(O)O)[C@@H](O)[C@H]1O; experiment: purified protein; type: biochemical, Clonorchis sinensis; conditions: 3 mM glucose, 15 mM MgCl2, 100 mM Tris-Cl pH 8.5, 37 °C, sigmoidal, Mg-ATP true substrate

## Nc1ncnc2c1ncn2[C@@H]1O[C@H](COP(=O)(O)OP(=O)(O)O)[C@@H](O)[C@H]1O [ADP]
[1]; 0-3 mM ADP, mixed allosteric effector, also product
  G6PD-coupled NADPH assay at 340 nm: ADP, which is a product of HK, exhibited an unusual mixed allosteric effect on CsHK

## O=P(O)(O)OC[C@H]1OC(O)[C@H](O)[C@@H](O)[C@@H]1O (some centres unmarked) [glucose-6-phosphate]
[2]
  coupled pyruvate kinase / lactate dehydrogenase ADP assay at 340 nm: Different concentrations G6P displayed the net allosteric inhibition of rCsHK

## O=P(O)(O)OP(=O)(O)O [inorganic pyrophosphate]
[1]; 0-3 mM PPi, allosteric activator, not a substrate
  G6PD-coupled NADPH assay at 340 nm: Different concentrations of PPi displayed a net allosteric activation of rCsHK with respect to ATP

## O=C(C1CCCCC1)N1CC(=O)N2CCc3ccccc3C2C1 (centres unmarked) [praziquantel]
[3]
  activity at 4000 µM: 45%

B1: rCsHK (recombinant Clonorchis sinensis hexokinase, CsHK) (Clonorchis sinensis) (protein)
chain: T1 sequence (G7YJ23 1-449)
notes: homotrimer about 164 kDa
Purified protein
  K0.5: 0.459 ± 0.007 mM
